This experiment is described as follows: Compound was tested for inhibition of Serine protease chymotrypsin.

*1 amine or outer side, *2 acyl side, *3 side chain or, on linkers, in order; H or OH if unused. Where a SMILES comes first, the peptide text is derived from it. [ ]: non-standard residue; d: D form. The star is where a group is joined. Phe(2-Me) = Cc1ccccc1C[C@H](N)C(=O)O; NleCONH2 = CCCC[C@H](N*)C(=O)C(N)=O; Suc = O=C(CCC(=O)[*:2])[*:1]; Tle = CC(C)(C)[C@H](N)C(=O)O

In general, IC50 refers to the point on the concentration scale where inhibition reaches its midpoint. In turn, `CCCC[C@H](NC(=O)[C@H](CC(C)C)NC(=O)[C@@H](NC(=O)[C@H](Cc1ccccc1C)NC(=O)[C@H](CCC(=O)O)NC(=O)[C@H](CC(=O)O)NC(=O)CCC(=O)O)C(C)(C)C)C(=O)C(N)=O` [(S)-4-((S)-1-{(S)-1-[(S)-1-((R)-1-Aminooxalyl-pentylcarbamoyl)-3-methyl-butylcarbamoyl]-2,2-dimethyl-propylcarbamoyl}-2-o-tolyl-ethylcarbamoyl)-4-[(S)-3-carboxy-2-(3-carboxy-propionylamino)-propionylamino]-butyric acid] (Suc-DE[Phe(2-Me)][Tle]L-NleCONH2) showed an IC50 of 300 nM.

For the origin of these results see BindingDB's records for doi:10.1016/s0960-894x(00)00654-5 (Roche Discover Welwyn, 2001).
